# Entries after “also recorded” stand apart in the source; their conditions may differ. Read-outs that look alike come from different tables or passages of the source.
# How the values were obtained:
# [1] = system: L. (V.) braziliensis promastigotes; assay: Antileishmanial activity on promastigotes (MTT, 72 h); format: cell-based, Leishmania (Viannia) braziliensis
# Procedure: Leishmania (Viannia) braziliensis (MHOM/BR/1975/M2903) was utilized in this study. The promastigote forms of these parasites were maintained in vitro in Schneider’s insect medium pH 7.2, supplemented with 20% fetal bovine serum (FBS) and 1% antibiotic solution (100 U/mL penicillin and 100 μg/mL streptomycin) at a temperature of 26 ± 1 °C in a Biochemical Oxygen Demand (BOD) incubator (Eletrolab EL202, São Paulo, Brazil), with regular aeration and weekly subculturing.
# (§1) Assessment of antileishmanial activity against promastigote and amastigote axenic forms of parasites followed the method described by Rodrigues et al. and involved the following steps: L. (V.) braziliensis parasites were cultured in 96-well plates at a concentration of 1 × 10^6 parasites per well. Each well contained 100 μL of supplemented Schneider medium. Serial concentrations of the test substances, ranging from 50 to 1.56 μmol/L, were prepared. Reference drugs, meglumine antimoniate (20 to 40,000 μmol/L) and amphotericin B (0.031 to 2 μmol/L) were also prepared. These concentrations were used to assess the effects of the test substances in comparison to reference drugs. The plates were incubated in a BOD incubator at 26 °C for 72 h. After the 72 h incubation period, 10 μL of MTT (5 mg/mL) was added to each well. The plates were then incubated for an additional 4 h. At the end of the 4 h incubation, formazan crystals formed by the reduction of the MTT salt were solubilized by adding 50 μL of a 10% (w/v) sodium dodecyl sulfate (SDS) solution in distilled water. Absorbance was measured using a microplate reader at a wavelength of 540 nm (Biosystems ELx800 model, Curitiba, PR, Brazil). This measurement quantified the metabolic activity of the parasites, which is indicative of their viability and proliferation. Schneider medium containing 0.2% DMSO was used as a negative control in the tests.
# (§2) The different mean concentrations for promastigotes (IC50) and macrophages (CC50) were calculated using nonlinear regression. For comparisons between groups, ANOVA analysis of variance was performed followed by Tukey’s test in a statistical program, taking the p-value < 0.05 as the maximum level of statistical significance.
# [2] = system: L. (V.) braziliensis axenic amastigotes; assay: Antileishmanial activity on axenic amastigotes (MTT, 72 h); format: cell-based, Leishmania (Viannia) braziliensis
# Procedure: In vitro amastigogenesis was performed by transformation from promastigotes at the stationary phase of growth to obtention axenic amastigotes. This process involved altering the culture conditions to Schneider’s medium with a pH of 5.5, supplementing them with 5% FBS, and incubating them at a temperature of 32 °C [17].
# as §1
# [3] = Cytotoxicity against RAW 264.7 macrophages (MTT); format: cell-based, murine; details: mouse, RAW 264.7 macrophages, pH 7.2, RAW 264.7 cells
# Procedure: (§3) Murine macrophage cell line RAW 264.7 was used in this study. The cells were cultured in 75 cm^2 cell culture flasks (Corning Glass Workers, New York, NY, USA) using DMEM medium with a pH of 7.2, supplemented with 10% FBS and 1% antibiotic solution (containing 100 U/mL penicillin and 100 μg/mL streptomycin). The cells were maintained in an incubator at a temperature of 37 °C with 5% CO2. The spikes were performed after the cells reached complete confluence, characterized by the formation of a monolayer of cells around 48 h to 72 h after packaging.
# (§4) In this study, we utilized the RAW 264.7 macrophages line (obtained from ATCC: code TIB-71™),human embryonic kidney cell line HEK-293 (obtained from ATCC: code CRL-1573™)and two human cancer cell cultures: the colon carcinoma cell line CaCo-2 and the adenocarcinomic human alveolar basal epithelial cell A549 (also obtained from ATCC: codesHTB-37™ and CCL-185™).These cell lines were cultured in Dulbecco’s modified Eagle medium (DMEM) from Gibco by Life Technologies (LifeTech Austria, Vienna, Austria). The growth medium was supplemented with 5% fetal bovine serum (FBS) from Gibco by Life Technologies and 1% penicillin-streptomycin obtained from Sigma-Aldrich (Vienna, Austria). The cells were maintained at 37 °C with 5% CO2 in a humidified incubator, and regular checks for mycoplasma contamination were carried out.
# (§5) For experimental purposes, the cells were seeded into 96-well plates at a density of 2 × 10^4 cells/mL, with each well containing 100 µL of the cell suspension. The cells were allowed to adhere for 24 h. Subsequently, they were exposed to 100 µL of the test compounds, which were diluted in DMEM, with concentrations ranging from 2 to 600 µmol/L. The stock solutions of these compounds were prepared in water with 10% (v/v) dimethyl sulfoxide (DMSO) and stored at 4 °C.
# (§6) To assess cell viability after 72 h of exposure to the compounds, we employed a 3-(4,5-dimethylthiazol-2-yl)-2,5-diphenyltetrazolium bromide (MTT)-based vitality assay kit (EZ4U, Biomedica, Vienna, Austria). Briefly, we added 20 µL of the EZ4U assay solution to each well and incubated the plates in the dark for 2 h. Subsequently, we measured the absorbance using a microplate reader at 450 nm, with 620 nm as a reference to reduce unspecific background values. For reliability, all experiments were conducted three times with triplicate samples.
# as §2
# RAW 264.7 macrophages = assay: Cytotoxicity against RAW 264.7 macrophages (MTT); format: cell-based, murine; details: RAW 264.7 cells, 72 h
# Procedure: as §3, §4, §5, §6, §2
# [4] = system: L. (V.) braziliensis intramacrophage amastigotes; assay: Treatment of RAW 264.7 macrophages infected with L. (V.) braziliensis (intramacrophage amastigotes); format: cell-based, Leishmania (Viannia) braziliensis; details: RAW 264.7 infected with L. (V.) braziliensis, 72 h of treatment
# Procedure: RAW 264.7 macrophages (1 × 10^6 cells/mL) were seeded in 24-well plates containing sterile glass slides, and approximately 500 μL of supplemented DMEM medium was added. The plates were then incubated at 37 °C with 5% CO2 for 4 h to facilitate cell adhesion. Following the adhesion period, promastigotes (1 × 10^7) in the stationary growth phase were introduced into the wells for infection. The plates were then incubated for an additional 4 h to allow infection to take place. Afterward, the medium was carefully removed, and the wells were washed three times with PBS to eliminate any nonadherent cells. Fresh medium containing serial concentrations of the test substances, ranging from 0.78 to 25 μmol/L, was added to the wells. Additionally, a range of concentrations of glucantime (25 to 800 μmol/L) was included for comparison. The treatment was carried out for 72 h in an incubator at 37 °C with 5% CO2. At the end of the 72 h treatment period, the glass lamina was removed from each well and stained using rapid panoptic stain (Laborklin®, Curitiba, Paraná, Brazil). The stained samples were mounted on permanent slides using Entelan® (Sigma-Aldrich, St. Louis, MO, USA), and antileishmanial activity was assessed by measuring the infection rate and counting the number of amastigotes per macrophage. Quantification was performed using light microscopy at a magnification of 1000×, and a total of 300 macrophages per lamina were evaluated. As a negative control, half DMEM containing 0.2% DMSO was used.
# pulmonary artery = assay: Vasodilator effect on pulmonary artery rings (KCl contraction); details: Cavia porcellus; guinea pig pulmonary artery rings
# Procedure: (§7) Guinea pigs of either sex weighing between 250 or 380 g were utilized in this study. The animals were housed in a controlled environment in an air-conditioned room, maintaining a temperature of 22 to 24 °C and a relative humidity of 50% to 60%. A 12 h light–dark cycle was maintained.
# (§8) On the day of the experiments, the animals were euthanized via cervical dislocation. The heart, aorta, pulmonary artery, and ileum were surgically removed and immersed in Krebs–Henseleit solution, with the following composition: NaCl 144.9 mM, KCl 4.73 mM, CaCl2 3.2 mM, MgSO4 1.18 mM, NaHCO3 24.9 mM, KH2PO4 1.18 mM, and glucose 10 mM, with the pH maintained at 7.2–7.4. This solution was continuously aerated with a mixture of 95% O2 and 5% CO2.
# (§9) Papillary muscles were isolated from the right ventricle of the heart and meticulously cleared of Purkinje fibers to prevent spontaneous activity. To ensure adequate oxygen supply, only muscles with a diameter less than 0.87 mm were used. The right atrium was also dissected for assessment of chronotropic activity. Both the aorta and pulmonary artery were cleaned and cut into 5 mm rings, while the ileum was sectioned into pieces measuring 1 to 2 cm.
# One end of the dissected tissues was securely tied with silver wire for attachment to a tissue holder, while the other end was connected to a force transducer (Transbridge™, 4-Channel Transducer Amplifier, World Precision Instruments, Sarasota, FL, USA). For contractile measurements, the terminal ileum was stimulated with 60 mM KCl, and the pulmonary artery and aorta rings were exposed to a 90 mM KCl solution. […]
# (§10) Following a 30 min control period, different concentrations of test compounds were cumulatively added to the bath solution every 45 min until a stable effect was achieved. The responses were recorded using a chart recorder (BD 112 Dual Channel, Kipp &Zonen, PO Box 507, 2624 BC, Delft, Holland) for subsequent evaluation. […]
# aorta = assay: Vasodilator effect on aortic rings (KCl contraction); details: Cavia porcellus; guinea pig aortic rings
# Procedure: as §7, §8
# as §9, with “Both the aorta and pulmonary artery were cleaned and cut into 5 mm rings, while the ileum was sectioned into pieces measuring 1 to 2 cm.” left out
# as §10
# terminal ileum = assay: Spasmolytic effect on terminal ileum (KCl contraction); details: guinea pig terminal ilea, KCl-induced contraction
# Procedure: as §7, §8, §9
# (§11) One end of the dissected tissues was securely tied with silver wire for attachment to a tissue holder, while the other end was connected to a force transducer (Transbridge™, 4-Channel Transducer Amplifier, World Precision Instruments, Sarasota, FL, USA). For contractile measurements, the terminal ileum was stimulated with 60 mM KCl, and the pulmonary artery and aorta rings were exposed to a 90 mM KCl solution. Papillary muscles were electrically stimulated using an Anapulse Stimulator Model 301-T and an Isolation Unit Model 305-1 (WPI, Hamden, CT, USA) with rectangular pulses of 3 ms duration at a frequency of 1 Hz. The amplitude of the stimulation pulse was maintained at 10% above the threshold level. To optimize contractility, a constant resting tension was applied throughout the experiment: 3.9 mN for papillary muscle, 4.9 mN for terminal ileum, 10.4 mN for the right atrium, and 19.6 mN for aorta and pulmonary artery rings.
# (§12) Following a 30 min control period, different concentrations of test compounds were cumulatively added to the bath solution every 45 min until a stable effect was achieved. The responses were recorded using a chart recorder (BD 112 Dual Channel, Kipp &Zonen, PO Box 507, 2624 BC, Delft, Holland) for subsequent evaluation. Stock concentrations of the test compounds were prepared using DMSO. To account for any potential DMSO effect, control experiments were conducted with the solvent alone, and the observed effects were subtracted from the responses elicited by the test compounds.
# right atrium = assay: Chronotropic effect on isolated right atrium; parameters: species or system guinea pig; details: Cavia porcellus; isolated guinea pig right atrium, 3 to 100 µmol/L; read-out: EC50 reduction of heart rate activity
# Procedure: as §7, §8, §9, §11, §12
Compound,IC50 ([1]; Leishmania braziliensis) [µM],CC50 at 72 h [3] [µM],CC50 (RAW 264.7 macrophages) [µM],EC50 [4] [µM],other results
"C[C@@H]1[C@H](O)[C@@H](C)/C=C/C=C/C=C/C=C/C=C/C=C/C=C/[C@H](O[C@@H]2O[C@H](C)[C@@H](O)[C@H](N)[C@@H]2O)C[C@@H]2O[C@](O)(C[C@@H](O)C[C@@H](O)[C@H](O)CC[C@@H](O)C[C@@H](O)CC(=O)O[C@H]1C)C[C@H](O)[C@H]2C(=O)O [Amphotericin B, reference compound]",0.3 ± 0.01,0.55,0.5 ± 0.1,0.3 ± 0.02,"EC50 ([2]; Leishmania braziliensis): 0.4 µM; EC50 ([4]; Leishmania braziliensis, RAW264.7, 72 h): 0.35 µM"
O=C(/N=C(/NCc1ccccc1)Nc1ccccc1Br)c1ccccc1 [LQOF-G35],25.9 ± 1.6,232 ± 3.5,,,
O=C(/N=C(/NCc1ccccc1)Nc1cccc(Br)c1)c1ccccc1 [LQOF-G36],> 50,,,,EC50 (pulmonary artery): 23.5 µM; EC50 (aorta): 29 µM; spasmolytic effect / contraction force in the terminal ileum (terminal ileum): decrease in contraction force; also recorded: spasmolytic effect; EC50 (right atrium): 38 µM
"Meglumine antimoniate [Meglumine At, reference compound]",,,846 ± 13,452 ± 14.3,IC50 [1]: 19300 µM; EC50 [2]: 2170 µM; EC50 ([4]; listed as Meglumine antimoniate): 452 µM

# Reference: paper PMC10813298, “Evidence of Guanidines Potential against Leishmania (Viannia) braziliensis: Exploring In Vitro Effectiveness, Toxicities and of Innate Immunity Response Effects” (Biomolecules, 2023)
